The values that follow come from publication PMC10708259 (Molecules, 2023).

SMILES strings stand for the structures. Counter-ions that a name gives are not always drawn.

Series [1] addresses T1, human μ-opioid receptor (OPRM1) (Homo sapiens, UniProt P35372).
T1 construct: host or cells: cAMP Hunter CHO-K1
The series is described as follows: cell-based. The following applies: for EC50: MOR Agonist EC50 ± SEM; for Emax: read-out: MOR Agonist %Emax ± SEM. The class given is cell-based.

The target of series [2] is T2, human κ-opioid receptor (OPRK1) (Homo sapiens, UniProt P41145). Description: Forskolin-induced cAMP accumulation assay, KOR agonist mode. Conditions: for Emax: CHO-K1, read-out: KOR Agonist %Emax ± SEM.
Series [3] concerns the target T3, human δ-opioid receptor (OPRD1) (Homo sapiens, UniProt P41143). Description: Forskolin-induced cAMP accumulation assay, DOR agonist mode. The following applies: for Emax: CHO-K1, read-out: DOR Agonist %Emax ± SEM.
Series [4] addresses T2, human κ-opioid receptor (OPRK1). The series is described as follows: Forskolin-induced cAMP accumulation assay, KOR antagonist mode. Conditions: for KOR Antagonist %Imax ± SEM: versus EC90 of U50488H, Imax normalized to nor-BNI. For orientation: Cyclic AMP is a second messenger, typically raised through Gs and lowered through Gi signalling.
The target of series [5] is T3, human δ-opioid receptor (OPRD1). Description: Forskolin-induced cAMP accumulation assay, DOR antagonist mode.

T1 sequence (P35372 whole entry): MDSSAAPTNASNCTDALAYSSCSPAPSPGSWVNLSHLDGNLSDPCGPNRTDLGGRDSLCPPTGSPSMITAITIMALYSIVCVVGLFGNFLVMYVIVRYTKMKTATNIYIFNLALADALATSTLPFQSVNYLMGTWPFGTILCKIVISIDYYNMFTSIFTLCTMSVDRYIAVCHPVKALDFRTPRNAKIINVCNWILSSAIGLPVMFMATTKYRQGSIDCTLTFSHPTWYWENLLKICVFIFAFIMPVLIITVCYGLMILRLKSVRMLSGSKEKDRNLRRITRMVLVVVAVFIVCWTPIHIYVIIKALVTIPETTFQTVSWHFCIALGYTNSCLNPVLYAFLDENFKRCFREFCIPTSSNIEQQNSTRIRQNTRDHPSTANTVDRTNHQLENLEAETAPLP
T3 sequence (P41143 whole entry): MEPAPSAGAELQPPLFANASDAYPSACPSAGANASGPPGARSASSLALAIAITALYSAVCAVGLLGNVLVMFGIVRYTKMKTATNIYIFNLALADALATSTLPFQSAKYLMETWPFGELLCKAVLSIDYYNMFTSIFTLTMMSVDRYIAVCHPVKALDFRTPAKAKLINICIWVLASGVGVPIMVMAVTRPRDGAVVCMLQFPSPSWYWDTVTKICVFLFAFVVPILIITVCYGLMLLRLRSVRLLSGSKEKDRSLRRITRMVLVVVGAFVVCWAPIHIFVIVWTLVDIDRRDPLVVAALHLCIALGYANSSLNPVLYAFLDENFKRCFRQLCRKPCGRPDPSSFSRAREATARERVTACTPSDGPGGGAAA
T2 sequence (P41145 whole entry): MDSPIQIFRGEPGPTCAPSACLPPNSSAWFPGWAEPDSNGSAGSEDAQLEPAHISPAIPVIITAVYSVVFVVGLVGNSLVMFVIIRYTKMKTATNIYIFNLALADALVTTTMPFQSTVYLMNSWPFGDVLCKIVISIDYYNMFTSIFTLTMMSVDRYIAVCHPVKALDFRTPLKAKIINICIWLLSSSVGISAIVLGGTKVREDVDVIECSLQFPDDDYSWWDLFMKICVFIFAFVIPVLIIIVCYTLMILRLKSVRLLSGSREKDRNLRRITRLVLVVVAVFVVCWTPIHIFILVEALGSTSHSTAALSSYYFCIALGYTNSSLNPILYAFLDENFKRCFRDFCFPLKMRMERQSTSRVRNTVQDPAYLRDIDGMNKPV

In general, melting point refers to the temperature, or range, at which the solid turns liquid. With `CC1C2Cc3ccc(O)cc3C1(C)CCN2CCc1ccc([N+](=O)[O-])cc1` (as salt: HCl) [Compound 3, (1R,5R,9R)-6,11-Dimethyl-3-(4-nitrophenethyl)-1,2,3,4,5,6-hexahydro-2,6-methanobenzo[d]azocin-8-ol], the melting point was 273 to 274 °C (dec.).
The term EC50 denotes the concentration needed to bring the measured effect to its halfway point. A higher EC50 goes with a need for much substance. A word on the Emax: it is the greatest response seen or fitted, relative to the assay's reference. The term IC50 denotes the concentration at which inhibition is half-maximal. The low end stands for higher potency, the high end for lower potency. On to `CC1c2ccc(O)cc2[C@@]2(C)CCN(CCc3ccccc3)[C@@H]1[C@H]2C` (single isomer, unassigned; (+)) [(+)-39], for which the EC50 worked out at 21.7 nM in series [1], 953 ± 120 nM in series [2] and 1340 ± 389 nM in series [3]. Moreover, the Emax in series [1] is 103%; in series [2], 37%; in series [3], 94%. For the same compound, the IC50 in series [4] is greater than 10000 nM.
On to `CC1c2ccc(O)cc2[C@]2(C)CCN(CCc3ccccc3)[C@H]1[C@@H]2C` (single isomer, unassigned; (-)) [(−)-39], for which the EC50 in series [1] stood at 1.2 nM; in series [2], 20.7 ± 6.1 nM; in series [3], 12.6 ± 3.9 nM. In addition, the figures for the Emax in series [1], in series [2] and in series [3] were 102%, 38% and 91%, respectively. The same compound showed an IC50 in series [4] of 731 ± 362 nM. In series [4], the “KOR Antagonist %Imax ± SEM” value is listed as 57 ± 5%.
On to `CC1C2Cc3ccc(O)cc3C1(C)CCN2CCc1ccccc1[N+](=O)[O-]` [Compound 5, (1R,5R,9R)-6,11-Dimethyl-3-(2-nitrophenethyl)-1,2,3,4,5,6-hexahydro-2,6-methanobenzo[d]azocin-8-ol], for which, in series [1], the EC50 came out at 2.7 nM and the Emax was 101%. Besides, in series [2], the midpoint of the response, the EC50, lay at 16 ± 4 nM and the Emax was 23%. For the same compound, in series [3], a half-maximal effect (EC50) was put at 37 ± 6 nM and the Emax is 73%. In addition, in series [4], the IC50 was 717 ± 132 nM and the “KOR Antagonist %Imax ± SEM” value amounted to 89 ± 5%.
Consider `C[C@H]1[C@H]2Cc3ccc(O)cc3[C@]1(C)CCN2CCc1ccc(F)cc1` [Compound 6, (2R,6R,11R)-6,11-Dimethyl-3-(4-fluorophenethyl)-1,2,3,4,5,6-hexahydro-2,6-methanobenzo[d]azocin-8-ol], for which, in series [1], the EC50 amounted to 1.8 nM and the Emax worked out at 100%. In series [2], the EC50 was determined as 7 ± 3 nM and the maximal effect (Emax) was 34%. In series [3], the EC50 worked out at 12 ± 3 nM and the Emax is 73%. Further, in series [4], the IC50 is 368 ± 92 nM and the “KOR Antagonist %Imax ± SEM” value is 71 ± 2%.
Consider `CC1C2Cc3ccc(O)cc3C1(C)CCN2CCc1cccc(F)c1` [Compound 7, (1R,5R,9R)-6,11-Dimethyl-3-(3-fluorophenethyl)-1,2,3,4,5,6-hexahydro-2,6-methanobenzo[d]azocin-8-ol], for which the results for the EC50 in series [1], in series [2] and in series [3] were 0.6 nM, greater than 10000 nM and 11 ± 4 nM, respectively. The Emax in series [1] is 100%; in series [3], 86%. Half-maximal inhibition in series [4] (IC50) was put at 274 ± 83 nM. Further, the “KOR Antagonist %Imax ± SEM” value in series [4] is given as 87 ± 2%.
Consider `CC1C2Cc3ccc(O)cc3C1(C)CCN2CCc1cccc(Br)c1` [Compound 13, (1R,5R,9R)-6,11-Dimethyl-3-(3-bromophenethyl)-1,2,3,4,5,6-hexahydro-2,6-methanobenzo[d]azocin-8-ol], for which, in series [1], the concentration for a half-maximal effect (EC50) came out at 18 nM and the Emax was 78%. Also, the EC50 in series [2] was greater than 10000 nM. Also, in series [3], the EC50 came to 110 ± 24 nM and the Emax was 51%. Besides, in series [4], the IC50 was found to be 90 ± 37 nM and the “KOR Antagonist %Imax ± SEM” value is 99 ± 2%.
As to `CC1C2Cc3ccc(O)cc3C1(C)CCN2CCc1cccc(Cl)c1` [Compound 16, (1R,5R,9R)-6,11-Dimethyl-3-(3-chlorophenethyl)-1,2,3,4,5,6-hexahydro-2,6-methanobenzo[d]azocin-8-ol], in series [1], the EC50 was 13 nM and the maximal effect (Emax) is 95%. Further, the EC50 in series [2] was greater than 10000 nM. Besides, in series [3], the EC50 came out at 93 ± 25 nM and the Emax is 64%. In series [4], it took 111 ± 43 nM to reach half-maximal inhibition (IC50) and the “KOR Antagonist %Imax ± SEM” value is recorded as 108 ± 10%.
On to `COc1ccc(CCN2CCC3(C)c4cc(O)ccc4CC2C3C)cc1` [Compound 18, (1R,5R,9R)-6,11-Dimethyl-3-(4-methoxyphenethyl)-1,2,3,4,5,6-hexahydro-2,6-methanobenzo[d]azocin-8-ol], for which the half-maximal effective concentration (EC50) in series [1] stood at 1.2 nM; in series [2] it was 9 ± 2 nM; in series [3] it was 4 ± 1 nM. In addition, the maximal response (Emax) in series [1] is 103%; in series [2], 89%; in series [3] it was 87%.
For the compound `Cc1ccc(CCN2CCC3(C)c4cc(O)ccc4CC2C3C)cc1` [Compound 19, (1R,5R,9R)-6,11-Dimethyl-3-(4-methylphenethyl)-1,2,3,4,5,6-hexahydro-2,6-methanobenzo[d]azocin-8-ol], the EC50 was 1.4 nM in series [1], 13 ± 3 nM in series [2] and 5 ± 2 nM in series [3]. The Emax in series [1] is 103%; in series [2], 93%; in series [3], 87%.
As to `CC1C2Cc3ccc(O)cc3C1(C)CCN2CCc1ccc(O)cc1` [Compound 20, (1R,5R,9R)-6,11-Dimethyl-3-(4-hydroxyphenethyl)-1,2,3,4,5,6-hexahydro-2,6-methanobenzo[d]azocin-8-ol], in series [1], the “MOR potency relative to morphine (times more potent than morphine)” value is on record as roughly 40 times, it took 0.13 nM to reach a half-maximal effect (EC50) and the Emax is 102%. In addition, in series [2], it took 8 ± 3 nM to reach a half-maximal effect (EC50) and the Emax is 97%. In addition, in series [3], the EC50 was found to be 5 ± 1 nM and the Emax was 84%.
Take `CC1C2Cc3ccc(O)cc3C1(C)CCN2CCc1ccc(Cl)cc1Cl` [Compound 21, (1R,5R,9R)-6,11-Dimethyl-3-(2,4-dichlorophenethyl)-1,2,3,4,5,6-hexahydro-2,6-methanobenzo[d]azocin-8-ol]: the EC50 turned out to be 5 nM in series [1], 42 ± 10 nM in series [2] and 37 ± 9 nM in series [3]. The Emax was 103% in series [1], 93% in series [2] and 86% in series [3].
`CC1C2Cc3ccc(O)cc3C1(C)CCN2CCc1c(Cl)cccc1Cl` [Compound 22, (1R,5R,9R)-6,11-Dimethyl-3-(2,6-dichlorophenethyl)-1,2,3,4,5,6-hexahydro-2,6-methanobenzo[d]azocin-8-ol]: in series [1], the EC50 was 4 nM and the Emax was 99%. The EC50 in series [2] is greater than 10000 nM. In addition, in series [3], the 50% effective concentration (EC50) was determined as 59 ± 25 nM and the Emax was 78%. In series [4], the IC50 came out at 65 ± 24 nM and the “KOR Antagonist %Imax ± SEM” value is recorded as 87 ± 7%.
Turning to `CC1C2Cc3ccc(O)cc3C1(C)CCN2CCc1ccccc1` [Compound 23, (1R,5R,9R)-6,11-Dimethyl-3-(phenethyl)-1,2,3,4,5,6-hexahydro-2,6-methanobenzo[d]azocin-8-ol], the values for the EC50 in series [1], in series [2] and in series [3] were 0.27 nM, 3.4 ± 0.4 nM and 4 ± 1 nM, respectively. Besides, the Emax is 101% in series [1], 25% in series [2] and 85% in series [3]. This compound also registered an IC50 in series [4] of 281 ± 94 nM. Also, in series [4], the “KOR Antagonist %Imax ± SEM” value came to 81 ± 5%.
In the case of `C[C@H]1[C@H]2Cc3ccc(O)cc3[C@]1(C)CCN2CCc1c[nH]c2ccccc12` [Compound 26, (1R,5R,9R)-3-(2-(1H-Indol-3-yl)ethyl)-6,11-dimethyl-1,2,3,4,5,6-hexahydro-2,6-methanobenzo[d]azocin-8-ol], the EC50 in series [1] is 12 nM; in series [2], greater than 10000 nM; in series [3], 343 ± 35 nM. For the same compound, the Emax in series [1] is 102%; in series [3], 91%. In addition, the IC50 in series [4] is greater than 10000 nM.
In the case of `C[C@H]1[C@H]2Cc3ccc(O)cc3[C@]1(C)CCN2CCC1CCN(C)CC1` [Compound 28, (1R,5R,9R)-6,11-Dimethyl-3-(2-(1-methylpiperidin-4-yl)ethyl)-1,2,3,4,5,6-hexahydro-2,6-methanobenzo[d]azocin-8-ol], in series [1], the “MOR agonist potency / efficacy in words” value is “little or no potency”. Further, the EC50 is greater than 10000 nM in series [1], 0.05 ± 0.02 nM in series [2] and greater than 10000 nM in series [3]. Besides, in series [2], the Emax was 15%. Further, the IC50 in series [5] and in series [4] was greater than 10000 nM each time.
